{
  "source": "patent US11771736B2",
  "about": "“Composition comprising a therapeutic agent and a CXCR4 selective antagonist and methods for using the same” (Mainline Biosciences (Shanghai) Co., Ltd., priority 2017, dated 2023)",
  "target": "T1, Human chemokine receptor CXCR4 (Homo sapiens, UniProt P61073)",
  "T1 construct": "expressed in transfected cells; host or cells: Chem-1 cells (membranes)",
  "T1 sequence (P61073 whole entry)": "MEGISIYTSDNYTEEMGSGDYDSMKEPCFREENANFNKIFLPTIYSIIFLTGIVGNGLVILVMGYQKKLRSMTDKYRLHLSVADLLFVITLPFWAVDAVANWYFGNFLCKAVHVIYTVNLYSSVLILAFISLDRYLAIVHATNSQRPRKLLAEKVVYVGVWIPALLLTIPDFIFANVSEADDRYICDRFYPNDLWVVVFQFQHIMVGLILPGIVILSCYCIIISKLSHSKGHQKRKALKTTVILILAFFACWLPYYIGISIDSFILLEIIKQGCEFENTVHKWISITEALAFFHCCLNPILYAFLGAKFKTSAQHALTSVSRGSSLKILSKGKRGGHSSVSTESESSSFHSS",
  "assay": "Human CXCR4/125I-SDF-1α binding inhibition assay",
  "experimental": "Non-specific binding was estimated in the presence of 30 nM SDF-1α.",
  "note": "Numbered stars: 1 amine (or outer) side, 2 acyl side, 3 side chain; on linkers, the order of the positions; unused ones are H or OH. Bridge positions count the residues as written; N and C are the ends. Square brackets hold non-standard residues; d marks the D form. Peptide text beside a SMILES is read from it. * marks the point of attachment. 2Nal = N[C@@H](Cc1ccc2ccccc2c1)C(=O)O; oXylylene = c1ccc(C[*:2])c(C[*:1])c1; Lys(iPr) = CC(C)NCCCC[C@H](N)C(=O)O; Bz = O=C(c1ccccc1)*",
  "data": [
    {"smiles": "CC(C)NCCCC[C@H](NC(=O)[C@@H]1CSCc2ccccc2CSC[C@H](NC(=O)c2ccccc2)C(=O)N[C@@H](Cc2ccc(O)cc2)C(=O)N[C@@H](CCCCNC(C)C)C(=O)N[C@H](CCCNC(=N)N)C(=O)N[C@@H](Cc2ccc3ccccc3c2)C(=O)NCC(=O)N1)C(=O)NCC(N)=O", "note": "[Example 20] (Bz-CY[Lys(iPr)][dR][2Nal]GC[Lys(iPr)]G-NH2; linker 1-7 via oXylylene)", "values": [
      {"measurement": "IC50", "result": 1300, "unit": "pM"},
      {"measurement": "Kb", "result": 390, "unit": "pM"}
    ]}
  ]
}
